Measurements taken from article PMC7917639, “Nopol-Based Quinoline Derivatives as Antiplasmodial Agents” (Molecules, 2021).

Tested on: Human hepatocarcinoma cell line (Hep G2)
Assay: Cytotoxicity assay (MTT)
Assay type: cell-based
Conditions: SDS 0.1%, assay positive control

CCCCCCCCCCCCOS(=O)(=O)[O-].[Na+] [SDS (0.1%)]
Hep G2 percent viability: ^b 1%
